Experimental data reported in US7517874B2 (priority 2007, dated 2009).

Columns and labels:
rat CB2 receptor (rCB2) = target: T1, rat CB2 receptor (rCB2) (Rattus norvegicus, UniProt Q9QZN9); experiment: cell-based; type: cell-based; details: for +/− RCB2: agonist or inverse agonist at rCB2
T1 sequence (Q9QZN9 1-360): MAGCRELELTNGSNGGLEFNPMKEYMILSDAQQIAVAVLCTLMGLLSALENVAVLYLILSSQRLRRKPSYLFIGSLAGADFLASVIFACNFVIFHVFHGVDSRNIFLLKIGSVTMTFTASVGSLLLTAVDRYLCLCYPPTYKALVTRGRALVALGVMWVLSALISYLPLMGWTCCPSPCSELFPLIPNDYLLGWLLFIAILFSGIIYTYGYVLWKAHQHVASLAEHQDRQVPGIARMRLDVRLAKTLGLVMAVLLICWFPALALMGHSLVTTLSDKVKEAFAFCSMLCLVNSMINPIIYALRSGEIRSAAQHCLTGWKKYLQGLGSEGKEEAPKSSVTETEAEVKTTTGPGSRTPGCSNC
How it was run: (§1)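 Readout: LANCE TR-FRET cAMP, back-calculated from a concurrent standard curve and scaled between forskolin-only and forskolin + 1 μM CP55,940 wells. EC50 and intrinsic activity came from four-parameter fits.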

[1] = target: human CB1 receptor (hCB1) (Homo sapiens, UniProt P21554); experiment: cell-based; type: cell-based
How it was run: as §1

Chain of human CB1 receptor (hCB1) (P21554 whole entry): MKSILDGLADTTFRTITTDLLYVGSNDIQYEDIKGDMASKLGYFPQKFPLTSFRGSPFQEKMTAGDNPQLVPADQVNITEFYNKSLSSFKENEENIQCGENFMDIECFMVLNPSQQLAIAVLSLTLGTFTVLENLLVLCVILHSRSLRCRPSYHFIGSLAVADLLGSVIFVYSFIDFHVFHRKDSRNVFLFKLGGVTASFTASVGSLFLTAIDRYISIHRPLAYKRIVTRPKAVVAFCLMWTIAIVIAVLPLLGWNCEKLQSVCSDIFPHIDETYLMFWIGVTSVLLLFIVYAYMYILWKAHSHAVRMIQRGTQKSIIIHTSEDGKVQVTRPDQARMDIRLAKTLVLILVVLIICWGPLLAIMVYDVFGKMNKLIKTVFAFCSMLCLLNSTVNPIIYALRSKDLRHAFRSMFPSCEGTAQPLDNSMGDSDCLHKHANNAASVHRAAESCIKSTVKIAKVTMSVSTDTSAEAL

Structure (SMILES) | +/− RCB2 (rat CB2 receptor (rCB2)) | EC50 [1] [µM] | EC50 (rat CB2 receptor (rCB2)) [µM]
CNC(=O)[C@@H](NC(=O)c1nc(-c2ccc(C)cc2F)n2c1CN(CC1CC1)CCC2)C(C)(C)C [Compound 323, (S)-8-(cyclopropylmethyl)-N-(3,3-dimethyl-1-(methylamino)-1-oxobutan-2-yl)-3-(2-fluoro-4-methylphenyl)-6,7,8,9-tetrahydro-5H-imidazo[1,5-a][1,4]diazepine-1-carboxamide] | − | > 10 | 
CNC(=O)[C@@H](NC(=O)c1nc(-c2ccccc2OC)n2c1CN(C)CCC2)C(C)(C)C [Compound 325, (S)-N-(3,3-dimethyl-1-(methylamino)-1-oxobutan-2-yl)-3-(2-methoxyphenyl)-8-methyl-6,7,8,9-tetrahydro-5H-imidazo[1,5-a][1,4]diazepine-1-carboxamide] | + | > 10 | 
CNC(=O)[C@@H](NC(=O)c1nc(-c2cc(Cl)ccc2OC)n2c1CN(C)CCC2)C(C)(C)C [Compound 327, (S)-3-(5-chloro-2-methoxyphenyl)-N-(3,3-dimethyl-1-(methylamino)-1-oxobutan-2-yl)-8-methyl-6,7,8,9-tetrahydro-5H-imidazo[1,5-a][1,4]diazepine-1-carboxamide] | + | > 10 | 
CNC(=O)[C@@H](NC(=O)c1nc(-c2cccc(C#N)c2)n2c1CN(C)CCC2)C(C)(C)C [Compound 328, (S)-3-(3-cyanophenyl)-N-(3,3-dimethyl-1-(methylamino)-1-oxobutan-2-yl)-8-methyl-6,7,8,9-tetrahydro-5H-imidazo[1,5-a][1,4]diazepine-1-carboxamide] | + | > 10 | 
CNC(=O)[C@@H](NC(=O)c1nc(-c2ccsc2)n2c1CN(C)CCC2)C(C)(C)C [Compound 329, (S)-N-(3,3-dimethyl-1-(methylamino)-1-oxobutan-2-yl)-8-methyl-3-(thiophen-3-yl)-6,7,8,9-tetrahydro-5H-imidazo[1,5-a][1,4]diazepine-1-carboxamide] | + | > 10 | 
CNC(=O)[C@@H](NC(=O)c1nc(-c2ccc(C(F)(F)F)cc2)n2c1CN(C)CCC2)C(C)(C)C [Compound 330, (S)-N-(3,3-dimethyl-1-(methylamino)-1-oxobutan-2-yl)-8-methyl-3-(4-(trifluoromethyl)phenyl)-6,7,8,9-tetrahydro-5H-imidazo[1,5-a][1,4]diazepine-1-carboxamide] | − | > 10 | 
CNC(=O)[C@@H](NC(=O)c1nc(-c2cc(F)cc(F)c2)n2c1CN(C)CCC2)C(C)(C)C [Compound 331, (S)-3-(3,5-difluorophenyl)-N-(3,3-dimethyl-1-(methylamino)-1-oxobutan-2-yl)-8-methyl-6,7,8,9-tetrahydro-5H-imidazo[1,5-a][1,4]diazepine-1-carboxamide] | + | > 10 | 
CNC(=O)[C@@H](NC(=O)c1nc(-c2ccc(C)cc2)n2c1CN(C)CCC2)C(C)(C)C [Compound 332, (S)-N-(3,3-dimethyl-1-(methylamino)-1-oxobutan-2-yl)-8-methyl-3-p-tolyl-6,7,8,9-tetrahydro-5H-imidazo[1,5-a][1,4]diazepine-1-carboxamide] |  | > 10 | > 10
CNC(=O)[C@@H](NC(=O)c1nc(-c2ccccc2OC(F)(F)F)n2c1CN(C)CCC2)C(C)(C)C [Compound 333, (S)-N-(3,3-dimethyl-1-(methylamino)-1-oxobutan-2-yl)-8-methyl-3-(2-(trifluoromethoxy)phenyl)-6,7,8,9-tetrahydro-5H-imidazo[1,5-a][1,4]diazepine-1-carboxamide] | + | > 10 | 
CNC(=O)[C@@H](NC(=O)c1nc(-c2ccc(C)c(Cl)c2)n2c1CN(C)CCC2)C(C)(C)C [Compound 334, (S)-3-(3-chloro-4-methylphenyl)-N-(3,3-dimethyl-1-(methylamino)-1-oxobutan-2-yl)-8-methyl-6,7,8,9-tetrahydro-5H-imidazo[1,5-a][1,4]diazepine-1-carboxamide] |  | > 10 | > 10
CNC(=O)[C@@H](NC(=O)c1nc(-c2cc(C)ccc2Cl)n2c1CN(C)CCC2)C(C)(C)C [Compound 335, (S)-3-(2-chloro-5-methylphenyl)-N-(3,3-dimethyl-1-(methylamino)-1-oxobutan-2-yl)-8-methyl-6,7,8,9-tetrahydro-5H-imidazo[1,5-a][1,4]diazepine-1-carboxamide] |  | > 10 | > 10
CNC(=O)[C@@H](NC(=O)c1nc(/C=C/c2ccccc2)n2c1CN(C)CCC2)C(C)(C)C [Compound 336, (S,E)-N-(3,3-dimethyl-1-(methylamino)-1-oxobutan-2-yl)-8-methyl-3-styryl-6,7,8,9-tetrahydro-5H-imidazo[1,5-a][1,4]diazepine-1-carboxamide] | − | > 10 | 
CNC(=O)[C@@H](NC(=O)c1nc(-c2ccc(F)cc2Cl)n2c1CN(C)CCC2)C(C)(C)C [Compound 337, (S)-3-(2-chloro-4-fluorophenyl)-N-(3,3-dimethyl-1-(methylamino)-1-oxobutan-2-yl)-8-methyl-6,7,8,9-tetrahydro-5H-imidazo[1,5-a][1,4]diazepine-1-carboxamide] | + | > 10 | 
CNC(=O)[C@@H](NC(=O)c1nc(-c2cccc(OC(F)(F)F)c2)n2c1CN(C)CCC2)C(C)(C)C [Compound 338, (S)-N-(3,3-dimethyl-1-(methylamino)-1-oxobutan-2-yl)-8-methyl-3-(3-(trifluoromethoxy)phenyl)-6,7,8,9-tetrahydro-5H-imidazo[1,5-a][1,4]diazepine-1-carboxamide] |  | > 10 | > 10
CNC(=O)[C@@H](NC(=O)c1nc(-c2ccc(OC(F)(F)F)cc2)n2c1CN(C)CCC2)C(C)(C)C [Compound 339, (S)-N-(3,3-dimethyl-1-(methylamino)-1-oxobutan-2-yl)-8-methyl-3-(4-(trifluoromethoxy)phenyl)-6,7,8,9-tetrahydro-5H-imidazo[1,5-a][1,4]diazepine-1-carboxamide] | − | > 10 | 
CNC(=O)[C@@H](NC(=O)c1nc(-c2ccc(C)cc2F)n2c1CN(C)CCC2)C(C)(C)C [Compound 340, (S)-N-(3,3-dimethyl-1-(methylamino)-1-oxobutan-2-yl)-3-(2-fluoro-4-methylphenyl)-8-methyl-6,7,8,9-tetrahydro-5H-imidazo[1,5-a][1,4]diazepine-1-carboxamide] | + | > 10 | 
CNC(=O)[C@@H](NC(=O)c1nc(-c2ccc3c(c2)OCO3)n2c1CN(C)CCC2)C(C)(C)C [Compound 341, (S)-3-(benzo[d][1,3]dioxol-5-yl)-N-(3,3-dimethyl-1-(methylamino)-1-oxobutan-2-yl)-8-methyl-6,7,8,9-tetrahydro-5H-imidazo[1,5-a][1,4]diazepine-1-carboxamide] | − | > 10 | 
CNC(=O)[C@@H](NC(=O)c1nc(-c2ccc(C#N)cc2)n2c1CN(C)CCC2)C(C)(C)C [Compound 342] |  | > 10 | > 10
CNC(=O)[C@@H](NC(=O)c1nc(-c2ccc(OC)cc2C)n2c1CN(C)CCC2)C(C)(C)C [Compound 343, (S)-N-(3,3-dimethyl-1-(methylamino)-1-oxobutan-2-yl)-3-(4-methoxy-2-methylphenyl)-8-methyl-6,7,8,9-tetrahydro-5H-imidazo[1,5-a][1,4]diazepine-1-carboxamide] |  | > 10 | > 10
CNC(=O)[C@@H](NC(=O)c1nc(-c2cnc(OC)nc2OC)n2c1CN(C)CCC2)C(C)(C)C [Compound 344, (S)-3-(2,4-dimethoxypyrimidin-5-yl)-N-(3,3-dimethyl-1-(methylamino)-1-oxobutan-2-yl)-8-methyl-6,7,8,9-tetrahydro-5H-imidazo[1,5-a][1,4]diazepine-1-carboxamide] |  | > 10 | > 10
CNC(=O)[C@@H](NC(=O)c1nc(-c2cccc(F)c2)n2c1CN(C)CCC2)C(C)(C)C [Compound 345, (S)-N-(3,3-dimethyl-1-(methylamino)-1-oxobutan-2-yl)-3-(3-fluorophenyl)-8-methyl-6,7,8,9-tetrahydro-5H-imidazo[1,5-a][1,4]diazepine-1-carboxamide] | + | > 10 | 
CNC(=O)[C@@H](NC(=O)c1nc(-c2cccc(OC)c2F)n2c1CN(C)CCC2)C(C)(C)C [Compound 346, (S)-N-(3,3-dimethyl-1-(methylamino)-1-oxobutan-2-yl)-3-(2-fluoro-3-methoxyphenyl)-8-methyl-6,7,8,9-tetrahydro-5H-imidazo[1,5-a][1,4]diazepine-1-carboxamide] | − | > 10 | 
CNC(=O)[C@@H](NC(=O)c1nc(-c2ccc(F)c(C)c2)n2c1CN(C)CCC2)C(C)(C)C [Compound 347, (S)-N-(3,3-dimethyl-1-(methylamino)-1-oxobutan-2-yl)-3-(4-fluoro-3-methylphenyl)-8-methyl-6,7,8,9-tetrahydro-5H-imidazo[1,5-a][1,4]diazepine-1-carboxamide] |  | > 10 | > 10
CNC(=O)[C@@H](NC(=O)c1nc(-c2cccnc2)n2c1CN(C)CCC2)C(C)(C)C [Compound 348, (S)-N-(3,3-dimethyl-1-(methylamino)-1-oxobutan-2-yl)-8-methyl-3-(pyridin-3-yl)-6,7,8,9-tetrahydro-5H-imidazo[1,5-a][1,4]diazepine-1-carboxamide] | + | > 10 | 
